This passage reports TGI and GI50 results from PubChem BioAssay (NCI).

Test systems include UACC-257 melanoma; NCI-H522 lung; RPMI-8226 leukemia; COLO 205 colon; KM12 colon; EKVX NSCLC; SK-OV-3 ovarian; MOLT-4 leukemia; SR leukemia; RXF 393 renal; NCI-H226 lung; HT29 colon; SNB-75 CNS; HCC-2998 colon; NCI-H460 lung.
What all share (assay): NCI anticancer screen, dose series, 48 h

Several values for one entry are separate records, joined by “and”; a condition that tells them apart may be missing. Identical values can stand only once.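 Test compounds were applied to cells in 96-well plates for 48 hours at 5 doses. At the GI50, growth is halved. TGI: concentration producing complete growth inhibition.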 A value given as a limit tells only on which side of the number the result lay.

For the compound `CCOC(=O)C1=C(OC(OCC)C(CC)[Se]c2ccccc2)CCC1` (centres undefined), the TGI was 77.4 µM with UACC-257 melanoma; 29.1 µM in the assay with NCI-H522 lung; 53.2 µM in the assay on RPMI-8226 leukemia; more than 100 µM in the assay with COLO 205 colon; more than 100 µM with KM12 colon; 91.2 µM in the assay with EKVX NSCLC. Besides, the TGI with SK-OV-3 ovarian was more than 100 µM; with MOLT-4 leukemia it was 73.5 µM; with SR leukemia, 83.4 µM; in the assay on RXF 393 renal, 37.7 µM; with NCI-H226 lung, 53.5 µM; in the assay on HT29 colon it was 58.1 µM. Moreover, the TGI in the assay on SNB-75 CNS is 69.8 µM; in the assay with HCC-2998 colon, more than 100 µM; with NCI-H460 lung it was more than 100 µM.
Turning to `CN1CCc2ccccc2C(C(=O)c2ccc3c(c2)OCO3)C1=O` (centres undefined), the TGI in the assay with UACC-257 melanoma, in the assay on NCI-H522 lung, with RPMI-8226 leukemia, with COLO 205 colon, in the assay with KM12 colon and in the assay with SK-OV-3 ovarian was more than 100 µM each time. Moreover, the TGI in the assay with MOLT-4 leukemia, in the assay with RXF 393 renal, in the assay with NCI-H226 lung, in the assay with HT29 colon, in the assay on SNB-75 CNS and in the assay on NCI-H460 lung was more than 100 µM throughout.
With `COc1ccc(/C=C\c2cc(OC)c(OC)c(OC)c2)cc1`, the TGI with NCI-H522 lung was 0.00151 µM; in the assay with RPMI-8226 leukemia, more than 100 µM; with COLO 205 colon, 11.5 µM; in the assay with KM12 colon, more than 100 µM; in the assay with SK-OV-3 ovarian, more than 100 µM; in the assay with MOLT-4 leukemia, 3.09 µM. In addition, the TGI in the assay with SR leukemia was 78.7 µM; in the assay with NCI-H226 lung, 0.222 µM and 0.0693 µM; in the assay on HT29 colon it was 13.6 µM; with SNB-75 CNS it was 0.000932 µM; in the assay on NCI-H460 lung it was 15.6 µM. Moreover, in the assay with SK-OV-3 ovarian, the GI50 is 99.3 µM.
Take `COc1cc([C@@H]2c3cc4c(cc3[C@@H](NCc3cccc(C#N)c3)C3COC(=O)[C@@H]32)OCO4)cc(OC)c1O` (some centres undefined): the TGI in the assay on UACC-257 melanoma is more than 100 µM; in the assay with NCI-H522 lung, 3.56 µM; with RPMI-8226 leukemia, 7.33 µM; in the assay with COLO 205 colon, 21.4 µM; in the assay with KM12 colon it was 4.66 µM; with EKVX NSCLC it was 6.58 µM. Also, the TGI with SK-OV-3 ovarian is 4.12 µM; with MOLT-4 leukemia, 1.43 µM; in the assay on RXF 393 renal, 19.6 µM; with NCI-H226 lung it was 2.4 µM; with HT29 colon, 5.51 µM; in the assay on SNB-75 CNS, 4.45 µM. In addition, the TGI with HCC-2998 colon was found to be 4.51 µM; in the assay on NCI-H460 lung, 2.09 µM.
For `C=C1C2=C(CCCC2)C(=O)OC12CCCCC2`, the TGI in the assay on UACC-257 melanoma, in the assay with NCI-H522 lung, in the assay on RPMI-8226 leukemia, in the assay on COLO 205 colon, in the assay with KM12 colon and in the assay with EKVX NSCLC was more than 100 µM each time. Further, the TGI with SK-OV-3 ovarian, with MOLT-4 leukemia, with SR leukemia, in the assay with RXF 393 renal, in the assay with NCI-H226 lung and with HT29 colon was more than 100 µM in each case. Besides, the TGI in the assay with SNB-75 CNS, in the assay with HCC-2998 colon and in the assay on NCI-H460 lung was more than 100 µM in each case.
As to `CCOC(=O)CCC(NC(=O)c1ccc(NC(OC)c2nc3cc(C(F)(F)F)ccc3nc2-c2ccccc2)cc1)C(=O)OCC` (centres undefined), the TGI with UACC-257 melanoma was 32.2 µM; with NCI-H522 lung, 25.6 µM; in the assay with RPMI-8226 leukemia, more than 74.1 µM; in the assay on COLO 205 colon, 35.6 µM; in the assay with KM12 colon, 19.1 µM; with EKVX NSCLC, 33.6 µM. Moreover, the TGI with SK-OV-3 ovarian is 34.9 µM; in the assay with MOLT-4 leukemia, more than 24.1 µM; in the assay on SR leukemia it was more than 100 µM; in the assay with RXF 393 renal, 27.2 µM; with NCI-H226 lung it was 35 µM; with HT29 colon, 22.1 µM. Moreover, the results for the TGI with SNB-75 CNS, in the assay with HCC-2998 colon and with NCI-H460 lung were 36.5 µM, 30 µM and 26.2 µM, respectively.
Consider `COc1ccc2[nH]c3c(c2c1)[C@H]1CCC(C(C)(C)C)C[C@H]1[C@H]1C(=O)N(c2ccccc2)C(=O)[C@@H]31` (some centres undefined), for which the TGI in the assay with UACC-257 melanoma is more than 80.6 µM; in the assay with NCI-H522 lung, more than 49.5 µM; in the assay with RPMI-8226 leukemia it was more than 100 µM; in the assay with COLO 205 colon, more than 79.2 µM; in the assay on KM12 colon, more than 100 µM; in the assay on EKVX NSCLC it was more than 100 µM. Besides, the TGI in the assay on SK-OV-3 ovarian is 44.9 µM; in the assay on MOLT-4 leukemia, more than 71.2 µM; in the assay on RXF 393 renal it was 26.5 µM; in the assay with NCI-H226 lung, 81.9 µM; in the assay on HT29 colon, more than 100 µM; in the assay on SNB-75 CNS, 14.6 µM. Besides, the figures for the TGI in the assay with HCC-2998 colon and in the assay on NCI-H460 lung were more than 100 µM and more than 53.6 µM, respectively.
As to `O=[N+]([O-])c1cccc(Nc2nc(Cl)nc(Cl)n2)c1`, the TGI in the assay with UACC-257 melanoma, in the assay on NCI-H522 lung, in the assay with RPMI-8226 leukemia, in the assay with COLO 205 colon, in the assay with KM12 colon and with EKVX NSCLC was more than 100 µM in each case. In addition, the TGI in the assay on SK-OV-3 ovarian, with MOLT-4 leukemia, in the assay on SR leukemia, in the assay with NCI-H226 lung, in the assay with HT29 colon and in the assay with SNB-75 CNS was more than 100 µM each time. The TGI in the assay with HCC-2998 colon and with NCI-H460 lung was more than 100 µM each time.
As for `CCCCOC/N=C(/N)NC#N`, the TGI in the assay on UACC-257 melanoma, with NCI-H522 lung, in the assay on RPMI-8226 leukemia, in the assay on COLO 205 colon, in the assay with KM12 colon and in the assay with EKVX NSCLC was more than 100 µM in each case. The TGI with SK-OV-3 ovarian was more than 100 µM; in the assay on MOLT-4 leukemia, more than 100 µM; in the assay with SR leukemia, 63.1 µM; in the assay on RXF 393 renal, more than 100 µM; in the assay with NCI-H226 lung it was more than 100 µM; with HT29 colon, more than 100 µM. Further, the TGI in the assay on SNB-75 CNS, in the assay on HCC-2998 colon and with NCI-H460 lung was more than 100 µM each time.
With `Cc1ccc(-c2cc(-c3ccccc3)c(C#N)c(=O)[nH]2)cc1`, the TGI in the assay with UACC-257 melanoma, with NCI-H522 lung, in the assay on RPMI-8226 leukemia, in the assay with COLO 205 colon, in the assay on KM12 colon and in the assay on EKVX NSCLC was more than 100 µM each time. The TGI in the assay on SK-OV-3 ovarian, with MOLT-4 leukemia, with SR leukemia, with RXF 393 renal, with NCI-H226 lung and with HT29 colon was more than 100 µM each time. Further, the TGI in the assay with SNB-75 CNS, in the assay with HCC-2998 colon and in the assay with NCI-H460 lung was more than 100 µM throughout.
For the compound `COc1ccc(C2Cc3cc(OC)c(OC)c(OC)c3C2)cc1` (centres undefined), the TGI in the assay with UACC-257 melanoma is more than 100 µM; with RPMI-8226 leukemia it was 98.9 µM; in the assay with COLO 205 colon, more than 100 µM; with KM12 colon, more than 100 µM; with EKVX NSCLC it was more than 100 µM; in the assay with SK-OV-3 ovarian it was more than 100 µM. Also, the TGI with MOLT-4 leukemia is 61.6 µM; with NCI-H226 lung, more than 100 µM; in the assay on HT29 colon, 79.6 µM; in the assay with SNB-75 CNS, 84.8 µM; in the assay on HCC-2998 colon, more than 100 µM; in the assay on NCI-H460 lung it was more than 100 µM.
As for `CCCNCCCCC(NC(C)=O)C(=O)NCc1ccccc1` (centres undefined), the TGI in the assay on UACC-257 melanoma, with NCI-H522 lung, in the assay with RPMI-8226 leukemia, in the assay on COLO 205 colon, with KM12 colon and with EKVX NSCLC was more than 100 µM each time. In addition, the TGI with SK-OV-3 ovarian, in the assay with MOLT-4 leukemia, in the assay with RXF 393 renal, in the assay on NCI-H226 lung, in the assay on HT29 colon and in the assay on SNB-75 CNS was more than 100 µM each time. Moreover, the TGI with HCC-2998 colon and with NCI-H460 lung was more than 100 µM each time.
Regarding `CCCc1cc(OC(=O)c2c(O)cc(OC)cc2CCC)cc(O)c1C(=O)O`, the TGI is 56.2 µM with UACC-257 melanoma; 43.9 µM in the assay on NCI-H522 lung; 60.7 µM in the assay with RPMI-8226 leukemia; 79.2 µM in the assay with COLO 205 colon; more than 100 µM in the assay with KM12 colon; 86.8 µM with EKVX NSCLC. The TGI in the assay with SK-OV-3 ovarian was 68.4 µM; with MOLT-4 leukemia it was 84.2 µM; in the assay on RXF 393 renal, 53.2 µM; in the assay with HT29 colon it was more than 100 µM; in the assay on SNB-75 CNS it was 73.4 µM; in the assay on HCC-2998 colon it was 66.2 µM. For the same compound, in the assay with NCI-H460 lung, the TGI stood at 76.6 µM.
As for `COC(=O)/C=C(\C)CCC1SC1(C)C` (centres undefined), the TGI in the assay on UACC-257 melanoma, in the assay with NCI-H522 lung, in the assay with RPMI-8226 leukemia, with COLO 205 colon, with KM12 colon and in the assay with EKVX NSCLC was more than 100 µM each time. The TGI with SK-OV-3 ovarian, in the assay with MOLT-4 leukemia, in the assay with RXF 393 renal, in the assay on NCI-H226 lung, in the assay with HT29 colon and with SNB-75 CNS was more than 100 µM throughout. The TGI with HCC-2998 colon and in the assay with NCI-H460 lung was more than 100 µM each time.
`CCCCCCCCC(O)c1ccc(/C=C\C(O)CCCC(=O)O)s1` (centres undefined): the TGI in the assay with UACC-257 melanoma, in the assay on NCI-H522 lung, with RPMI-8226 leukemia, in the assay with COLO 205 colon, in the assay on KM12 colon and with EKVX NSCLC was more than 100 µM in each case. Further, the TGI in the assay with SK-OV-3 ovarian, in the assay with MOLT-4 leukemia, in the assay with SR leukemia, in the assay with RXF 393 renal, with NCI-H226 lung and in the assay on HT29 colon was more than 100 µM throughout. For the same compound, the TGI in the assay on SNB-75 CNS, in the assay with HCC-2998 colon and in the assay on NCI-H460 lung was more than 100 µM in each case.
